Literature values, collected in patent US20260146084A1, “METHODS FOR TREATING MYELOFIBROSIS AND RELATED CONDITIONS” (Disc Medicine, Inc., priority 2019, published 2026).

Legend:
[1] = tested on: pro-inflammatory cytokines; settings: mouse models
JAK1 = JAK1 (Homo sapiens, UniProt P23458)
[2] = target: T1, ACVR1 (HJV signaling partner) (Homo sapiens, UniProt Q04771)
T1 sequence (Q04771 21-509): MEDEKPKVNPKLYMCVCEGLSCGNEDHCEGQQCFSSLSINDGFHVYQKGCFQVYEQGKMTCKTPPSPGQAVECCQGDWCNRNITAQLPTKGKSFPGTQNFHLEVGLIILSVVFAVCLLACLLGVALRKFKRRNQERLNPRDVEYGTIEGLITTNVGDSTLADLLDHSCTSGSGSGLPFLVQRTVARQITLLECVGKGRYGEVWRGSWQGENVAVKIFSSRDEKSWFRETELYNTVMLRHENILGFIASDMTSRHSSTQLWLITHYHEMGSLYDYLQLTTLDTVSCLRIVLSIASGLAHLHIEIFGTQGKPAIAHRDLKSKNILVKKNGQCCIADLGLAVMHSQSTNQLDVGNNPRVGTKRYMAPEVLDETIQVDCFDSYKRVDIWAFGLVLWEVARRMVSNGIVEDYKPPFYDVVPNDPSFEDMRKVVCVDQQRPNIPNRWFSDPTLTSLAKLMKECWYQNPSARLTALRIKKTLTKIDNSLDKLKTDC

JAK2 = JAK2 (Homo sapiens, UniProt O60674)
Sequence of JAK2 (O60674 whole entry): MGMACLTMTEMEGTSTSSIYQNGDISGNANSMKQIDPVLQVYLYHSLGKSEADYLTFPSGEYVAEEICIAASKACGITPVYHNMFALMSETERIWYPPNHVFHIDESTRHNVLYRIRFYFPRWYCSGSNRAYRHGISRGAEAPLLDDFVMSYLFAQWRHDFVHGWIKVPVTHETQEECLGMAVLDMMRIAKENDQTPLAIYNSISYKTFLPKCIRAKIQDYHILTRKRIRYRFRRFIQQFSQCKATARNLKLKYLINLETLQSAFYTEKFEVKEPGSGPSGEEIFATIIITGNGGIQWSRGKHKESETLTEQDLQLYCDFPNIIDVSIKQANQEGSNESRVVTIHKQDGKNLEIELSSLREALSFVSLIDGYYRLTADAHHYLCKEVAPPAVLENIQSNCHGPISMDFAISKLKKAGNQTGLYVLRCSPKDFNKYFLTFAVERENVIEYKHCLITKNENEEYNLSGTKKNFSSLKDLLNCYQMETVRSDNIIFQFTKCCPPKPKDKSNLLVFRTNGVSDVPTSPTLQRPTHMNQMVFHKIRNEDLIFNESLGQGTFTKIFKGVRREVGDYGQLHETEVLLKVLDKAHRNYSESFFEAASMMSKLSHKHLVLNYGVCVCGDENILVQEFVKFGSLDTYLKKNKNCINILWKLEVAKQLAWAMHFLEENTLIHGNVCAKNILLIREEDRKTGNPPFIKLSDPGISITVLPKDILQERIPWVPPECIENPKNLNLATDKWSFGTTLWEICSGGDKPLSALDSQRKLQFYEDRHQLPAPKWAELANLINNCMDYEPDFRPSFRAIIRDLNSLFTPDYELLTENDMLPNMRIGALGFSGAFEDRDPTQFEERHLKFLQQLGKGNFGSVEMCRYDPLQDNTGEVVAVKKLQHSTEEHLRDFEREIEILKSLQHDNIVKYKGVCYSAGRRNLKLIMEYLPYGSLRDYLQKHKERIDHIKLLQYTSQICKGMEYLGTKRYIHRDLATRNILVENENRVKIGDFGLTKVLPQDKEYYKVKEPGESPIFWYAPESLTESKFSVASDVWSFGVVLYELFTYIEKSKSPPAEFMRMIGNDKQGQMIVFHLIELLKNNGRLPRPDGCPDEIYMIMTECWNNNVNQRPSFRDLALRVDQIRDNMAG

Sequence of JAK1 (P23458 whole entry): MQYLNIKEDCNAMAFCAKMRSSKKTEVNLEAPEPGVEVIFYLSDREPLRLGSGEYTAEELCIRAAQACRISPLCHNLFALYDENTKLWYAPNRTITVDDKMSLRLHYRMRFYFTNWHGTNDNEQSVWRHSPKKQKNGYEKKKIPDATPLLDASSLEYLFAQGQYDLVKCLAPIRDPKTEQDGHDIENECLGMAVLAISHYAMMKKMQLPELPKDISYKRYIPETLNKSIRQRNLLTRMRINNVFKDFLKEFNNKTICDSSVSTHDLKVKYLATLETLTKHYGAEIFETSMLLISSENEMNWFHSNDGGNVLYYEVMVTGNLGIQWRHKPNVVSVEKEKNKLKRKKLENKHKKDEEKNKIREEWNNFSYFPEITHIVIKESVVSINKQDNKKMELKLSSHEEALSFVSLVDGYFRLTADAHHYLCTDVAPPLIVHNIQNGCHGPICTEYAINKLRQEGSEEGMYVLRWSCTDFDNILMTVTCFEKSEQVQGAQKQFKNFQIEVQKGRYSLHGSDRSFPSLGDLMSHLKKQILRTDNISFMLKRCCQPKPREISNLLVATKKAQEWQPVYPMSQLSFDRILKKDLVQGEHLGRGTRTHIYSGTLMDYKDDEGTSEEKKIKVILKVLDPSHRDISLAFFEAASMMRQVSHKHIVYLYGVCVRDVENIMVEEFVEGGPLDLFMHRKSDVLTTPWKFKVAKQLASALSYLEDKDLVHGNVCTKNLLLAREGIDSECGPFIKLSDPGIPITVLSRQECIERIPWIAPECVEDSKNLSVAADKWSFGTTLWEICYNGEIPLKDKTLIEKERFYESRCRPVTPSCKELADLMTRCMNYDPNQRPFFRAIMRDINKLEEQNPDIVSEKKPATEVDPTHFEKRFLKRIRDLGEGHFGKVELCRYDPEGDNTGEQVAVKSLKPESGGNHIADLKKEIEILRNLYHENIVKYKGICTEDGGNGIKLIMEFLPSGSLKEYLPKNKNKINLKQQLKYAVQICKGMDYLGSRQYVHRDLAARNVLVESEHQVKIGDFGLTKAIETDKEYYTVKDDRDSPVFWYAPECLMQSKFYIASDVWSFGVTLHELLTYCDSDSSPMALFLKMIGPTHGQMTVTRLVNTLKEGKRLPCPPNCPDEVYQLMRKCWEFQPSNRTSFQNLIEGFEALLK

## Cc1noc2c1-c1ccccc1C(c1ccc(Cl)cc1)=N[C@H]2CC(N)=O [CP-0610]
[1]
  pro-inflammatory cytokines: downregulated pro-inflammatory cytokines

## Cc1cnc(Nc2ccc(OCCN3CCCC3)cc2)nc1Nc1cccc(S(=O)(=O)NC(C)(C)C)c1 [Fedratinib]
Myelofibrosis patients
  effect on anemia: worsens anemia

## N#CCNC(=O)c1ccc(-c2ccnc(Nc3ccc(N4CCOCC4)cc3)n2)cc1 [Momelotinib]
JAK1
  inhibition of JAK1: inhibits
[2]
  inhibition of ACVR1: inhibits
JAK2
  inhibition of JAK2: inhibits
Myelofibrosis patients
  effect on anemia: improves anemia
  effect on splenomegaly and disease symptoms: improving disease symptoms

## N#CC[C@H](C1CCCC1)n1cc(-c2ncnc3[nH]ccc23)cn1 [ruxolitinib]
Myelofibrosis patients
  effect on anemia: worsens anemia
